Test results published in article PMC6295574, “Molecular and Functional Characterization of Odorant Binding Protein 7 From the Oriental Fruit Moth Grapholita molesta (Busck) (Lepidoptera: Tortricidae)” (Frontiers in Physiology, 2018).
Entries after “also recorded” stand apart in the source; their conditions may differ. Like-named read-outs stand apart in the source and are kept apart here.

Legend:
[1] = target: T1, rGmolOBP7 (recombinant GmolOBP7) (Grapholita molesta, UniProt A0A2R4SBC1); experiment: biochemical; format: binding; conditions: for binding to rGmolOBP7 (in words): competitive binding, 1-NPN probe
T1 sequence (A0A2R4SBC1 entry or part of it): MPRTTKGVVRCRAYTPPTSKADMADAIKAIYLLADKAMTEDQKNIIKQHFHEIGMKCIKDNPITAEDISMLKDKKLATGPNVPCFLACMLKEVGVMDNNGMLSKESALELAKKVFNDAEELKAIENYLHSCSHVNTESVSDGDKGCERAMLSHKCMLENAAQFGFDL
Description: (§1) Fluorescence intensity was detected on a spectrophotofluorometer (F-4500, Hitachi, Japan) at room temperature using a quartz cuvette with a 1 cm light path. The silt width of excitation and emissions were all 10 nm. The fluorescence probe 1-NPN was excited at 337 nm and the emission spectra were recorded between 370 and 550 nm. Four sex pheromone components and 31 volatiles, derived from peach shoots and pear fruits, were selected for binding assays (Table 2). The probe 1-NPN and tested ligands were all dissolved in spectrophotometric-grade methanol to obtain a 1 mM stock solution.
The corresponding florescence intensity values were collected as three independent measurements. The binding constant (K1−NPN) of 1-NPN to rGmolOBP7 was calculated using GraphPad Prism 5 software (GraphPad Software, Inc.) via nonlinear regression for a unique site of binding.

[2] = tested on: Grapholita molesta antennae; experiment: EAG responses of GmolOBP7-dsRNA-injected moths to stimulants; conditions: stimulant 10 mg/mL in liquid paraffin; for EAG response of dsGmolOBP7-injected male moths vs dsGFP-injected and non-injected controls: 1-day-old males; for EAG response of dsRNA-treated moths vs non-injected control: male and female moths, 1-day-old
Description: Based on the expression patterns observed at different insect stages, 5-day-old G. molesta pupae (later-pupae) were selected to receive a dsRNA microinjection. The conjunctivum between the prothorax and mesothorax, the conjunctivum between the mesothorax and metathorax and the conjunctivum between the thorax and abdomen were initially selected as putative injection sites. Then, 39, 69, and 138 nL of RNase-free H2O were injected into different conjunctiva, respectively. A total of 69 nL (approximately 241.5 ng dsRNA) of dsGmolOBP7 or dsGFP was injected into the appropriate injection sites of each 5-day-old pupa, by using a PL1-100 Pico-Injector (Harvard Apparatus, Holliston, MA, USA) operated by an MP-255 Micromanipulator (Sutter, Novato, CA, USA). Each type of dsRNA was injected into 600 male and 600 female moths. The heads (with antenna) of 1-, 2-, 3-, and 4 day-old adults were dissected and immediately stored at −80°C prior to use. The total RNA and first-strand cDNA were obtained in accordance with previous methods. The specimens were used for qRT-PCR analysis to test the reduction in GmolOBP7 transcription. Experiments were performed with three biological replicates and three technical replicates.
EAG responses of dsRNA-injected (including dsGmolOBP7 and dsGFP) moths and non-injected controls, to sex pheromones and host plant volatiles were detected using Electroantennography. All stimulants were diluted with liquid paraffin to the final concentration of 10 mg/mL. Liquid paraffin and cis-3-hexenyl acetate were used as the blank and reference control, respectively. Both ends of adult antennae were cut and blocked with a drop of Spectra® 360 Electrode Gel (Parker Laboratories, Fairfield, USA). The basal section was connected to the reference electrode while the distal end was linked to the recording electrode. A filtered humidified air stream was delivered by a Syntech stimulus controller (CS55 model, Syntech, Germany) at a constant flow rate of 50 cm/s, and the time of stimuli flow was 0.5 s. Filter paper strips (0.6 cm × 4.5 cm) were dripped with 15 μL of chemical solution as a stimulus source and inserted into a 1.5 mL micropipet tip. A set of stimulants consisted of four sex pheromones and five host-plant volatiles which can be strongly bound with rGmolOBP7. Each antenna measured the group of randomly arranged stimulants described above. The antennae were stimulated one time with liquid paraffin and cis-3-hexenyl acetate and dissolved in solvent, before and after each group stimulation, in order to ensure the tested antenna were activated and the connecting pipe was not contaminated by stimulants. Recordings per stimulant were taken and the antennal responses were recorded. Eight male and female antennae were measured for each stimulant. The paired t-test was used to determine whether the difference in EAG values were significant between the dsRNA injected moths (dsGmolOBP7 and dsGFP) and the non-injected control. All the data were analyzed using SPSS 18.0 software (SPSS Inc., Chicago, IL, USA).

[3] = tested on: male antennae of G. molesta; parameters: method as in Cardé et al., 1975, 1979; conditions: ref Cardé et al., 1975, 1979; cited from earlier work
[4] = target: T1, rGmolOBP7 (recombinant GmolOBP7); experiment: Binding of fluorescence probe 1-NPN to rGmolOBP7 (binding curve, Scatchard plot); conditions: 2 μM protein in 20 mM Tris-HCl pH 7.4, 1-NPN up to 18 μM; read-out: dissociation constant (Kd) of 1-NPN
Description: as §1, with “solution. The binding affinity of rGmolOBP7 with 1-NPN was measured by adding aliquots of 1-NPN to a 2 μM protein solution (diluted with 20 mM Tris-HCl pH 7.4) to final concentrations of 0 to 18 μM.” for “solution.”
The corresponding florescence intensity values were collected as three independent measurements. The binding constant (K1−NPN) of 1-NPN to rGmolOBP7 was calculated using GraphPad Prism 5 software (GraphPad Software, Inc.) via nonlinear regression for a unique site of binding. The dissociation constant (Ki) of each ligands competitive binding to rGmolOBP7, were calculated from the corresponding IC50, by using the equation Ki = [IC50]/(1+[1-NPN]/K1−NPN), where [1-NPN] is the free concentration of 1-NPN, and K1−NPN is the dissociation constant of the complex protein/1-NPN.

[5] = 2 μM rGmolOBP7 and 2 μM 1-NPN, 20 mM Tris-HCl pH 7.4, room temperature, three independent measurements, read-out: IC50
[6] = calculated from IC50 by Ki = [IC50]/(1+[1-NPN]/K1-NPN), read-out: Ki

| SMILES | IC50 [1, 5] [µM] | Ki [1, 6] [µM] | IC50 [1] [µM] | Ki [1] [µM] | other results |
| --- | --- | --- | --- | --- | --- |
| C=CC(C)(O)CCC=C(C)CCC=C(C)C (mixture of isomers) [Nerolidol] | > 35 | > 35 |  |  |  |
| CCCCCCCCCCO [1-Decanol] |  |  | > 35 | > 35 |  |
| CCCCCCCCCCCCO [1-Dodecanol] | 10.7 ± 0.85 | 7.48 |  |  | EAG response of dsGmolOBP7-injected male moths vs dsGFP-injected and non-injected controls ([2]; 15 μL): significantly reduced; EAG response of dsGmolOBP7-injected male moths vs dsGFP-injected and non-injected controls ([2]; 15 μL, listed as 12:OH): significantly decreased; EAG response of male antennae [3]: weak EAG response |
| CCCCCCCCCCCCCCCCO [1-Hexadecanol] | > 35 | > 35 |  |  |  |
| CCCCCCO [1-Hexanol] |  | 17.4 | 24.9 ± 1.28 |  |  |
| c1ccc(Nc2cccc3ccccc23)cc1 [1-NPN, N-phenyl-1-naphthylamine] |  |  |  |  | Kd [4]: 2.3 µM |
| CCCCCCCCCCCCCCO [1-Tetradecanol] |  |  | > 35 | > 35 |  |
| C=C1[C@@H]2CC[C@@H](C2)C1(C)C [(-)-Camphene] | > 35 | > 35 |  |  |  |
| CCC/C=C/C=O [(E)-2-Hexenal] |  |  | 24.4 ± 1.53 | 17 |  |
| CCC/C=C/CCCCCCCOC(C)=O [(E)-8-dodecenyl acetate] | > 35 | > 35 |  |  | binding to rGmolOBP7 (in words) [1]: did not bind; EAG response of dsRNA-treated moths vs non-injected control [2]: not significantly different |
| CC/C=C\CCO [(Z)-3-Hexen-1-ol] |  |  | 17.6 ± 0.52 | 12.3 |  |
| CC/C=C\CCOC(C)=O [(Z)-3-Hexenyl acetate] | 19.6 ± 0.27 | 13.7 |  |  | EAG response of dsRNA-treated moths vs non-injected control [2]: not significantly different |
| CCC/C=C\CCCCCCCOC(C)=O [(Z)-8-dodecenyl acetate] |  |  |  |  | binding to rGmolOBP7 (in words) [1]: did not bind; EAG response of dsRNA-treated moths vs non-injected control [2]: not significantly different |
| CCC/C=C\CCCCCCCO [(Z)-8-dodecenyl alcohol] | > 35 | > 35 |  |  | binding to rGmolOBP7 (in words) [1]: did not bind; EAG response of dsRNA-treated moths vs non-injected control [2]: not significantly different |
| O=Cc1ccccc1 [Benzaldehyde] |  |  | 20.2 ± 0.27 | 14.1 |  |
| N#Cc1ccccc1 [Benzonitrile] |  |  | 17.9 ± 1.29 | 12.5 |  |
| OCc1ccccc1 [Benzyl alcohol] |  |  | > 35 | > 35 |  |
| CCCCOC(C)=O [Butyl acetate] |  |  | 18.1 ± 1.57 | 12.6 |  |

| SMILES | IC50 [1, 5] [µM] | Ki [1, 6] [µM] | IC50 [1] [µM] | Ki [1] [µM] | other results |
| --- | --- | --- | --- | --- | --- |
| CCCCOC(=O)CCC [Butyl butyrate] | 16.3 ± 1.71 | 11.3 |  |  |  |
| CCCCCC(=O)OCCCC [Butyl hexanoate] | 24.4 ± 0.77 | 17 |  |  |  |
| CCCCCCCCCC=O [Decanal] | 18.2 ± 1.27 | 12.7 |  |  |  |
| CCCCCCC=O [Heptanal] |  | 10.9 | 15.7 ± 0.64 |  |  |
| CCCCCC=O [Hexanal] |  |  | 27.4 ± 1.59 | 19.1 |  |
| CCCCCCCCCCCC=O [Lauraldehyde] | 6.18 ± 0.43 | 4.31 |  |  | EAG response of dsRNA-treated moths vs non-injected control [2]: not significantly different |
| CCC(C)=CCCC(C)=CC#N [Lemonile] | > 35 | > 35 |  |  |  |
| C=CC(C)(O)CCC=C(C)C (stereo not drawn) [Linalool] |  |  | 21.7 ± 1.11 | 15.1 |  |
| CC/C=C\CC1C(=O)CCC1CC(=O)OC (stereo not drawn) [Methyl jasmonate] | 18.7 ± 0.22 | 13 |  |  |  |
| CCCCCCCCCCCCCC(=O)OC [Methyl myristate] | > 35 | > 35 |  |  |  |
| CCCCCCCCCCCCCCCC(=O)OC [Methyl palmitate] | > 35 | > 35 |  |  |  |
| COC(=O)c1ccccc1O [Methyl salicylate] |  |  | 14.1 ± 0.22 | 9.81 |  |
| CCCCCCCCC=O [Nonanal] | 28.6 ± 3.38 | 19.9 |  |  |  |
| CCCCC/C=C\C=C\C(=O)OCC [Pear ester, Ethyl (E, Z)-2,4-decadienate] | 3.62 ± 0.25 | 2.52 |  |  | EAG response of dsGmolOBP7-injected female moths vs dsGFP-injected and non-injected controls ([2]; 1-day-old females, 15 μL): significantly reduced; also recorded: significantly decreased; EAG response of dsGmolOBP7-injected male moths vs dsGFP-injected and non-injected controls ([2]; 15 μL): significantly reduced; also recorded: significantly decreased |
| CCCCCCCCCCCCCC=O [Tetradecanal] | > 35 | > 35 |  |  |  |
| C=C/C(C)=C/CCC(=C)C [α-Ocimene] | 11.1 ± 0.2 | 7.75 |  |  | EAG response of dsRNA-treated moths vs non-injected control [2]: not significantly different |
| CC1=CCC2CC1C2(C)C (stereo not drawn) [α-Pinene] |  |  | 17.1 ± 1.2 | 11.9 | EAG response of dsRNA-treated moths vs non-injected control [2]: not significantly different |
| C=C1CC/C=C(\C)CC[C@@H]2[C@@H]1CC2(C)C [β-Caryophyllene] |  |  | > 35 | > 35 |  |
